# Laboratory results as given in patent publication US8993635B2, “Method of increasing or maintaining the reproductive performance of sows” (Pork CRC Ltd, priority 2010, dated 2015).
# Marks after values point to notes of the source that are not given here.
# Columns and labels:
# [1] = tested on: large white first parity sows; test: Supplementary ractopamine in the lactation diet: sow weight loss and subsequent reproductive performance (Example 1); assay type: in vivo, pig
# Text: Sixty large white first parity sows were allocated to one of two treatment groups (n=30 sows/treatment). One group (CONT) received a standard lactation diet (0.71 g available lysine/MJ digestible energy (DE)) throughout lactation, whilst the other group (RAC) received the standard lactation diet supplemented with ractopamine at 10 ppm from d 1-13 of lactation and 20 ppm from d 14 of lactation until mating. The amount of feed offered each day was stepped up gradually, reaching 5 kg/day by d 4 of lactation, and maintained at this level for the rest of lactation. Sows were weighed and P2 backfat measured on d 1, 14 and 20 of lactation, the litter size standardised to 9 piglets within 24 hours of lactation. Sows were weaned on d 21 of lactation, with boar exposure commencing 4 d after weaning and sows artificially inseminated twice at their first oestrus post-weaning. Subsequent reproductive performance of all sows was recorded: weaning-to-oestrus interval (WOI) and second litter size. Sows failing to epress eostrus within 10 d of weaning were deemed to be anoestrus and allocated a nominal weaning-to-oestrus interval of 15 d. A general analysis of variance model was used to study the effects of RAC supplementation on sow weight loss during lactation and subsequent reproductive performance.
# [2] = tested on: Large White/Landrace parity 1 sows; test: Paylean (ractopamine) treatment during first lactation: maternal catabolism, post-weaning fertility, piglet growth, milk composition (Example 2); assay type: in vivo, pig; conditions: for MMD loss in lactation (mm): maximum eye muscle depth; for Live weight loss in lactation (kg) Days 1-7 / Live weight loss in lactation (kg) Days 8-14 / Live weight loss in lactation (kg) Days 15-20: parity 1 sows, ractopamine 10 ppm days 1-13, 20 ppm from day 14 until mating; for 2nd litter size: Born alive / 2nd litter size: Total born: second litter; for Proportion sows exhibiting oestrus: within 10 days of weaning
# Experimental: This experiment was conducted at the University of Adelaide's Pig and Poultry Production Institute (PPPI) at Roseworthy, South Australia, with approval from the animal ethics committees of Primary Industries and Resources South Australia and The University of Adelaide. The experiment used sixty Large White/Landrace parity 1 sows, and was conducted in four replicates: replicates one and two were run in October and November 2006, respectively (spring); and replicates three and four were run in March and April 2007, respectively (autumn).
# At entry into the farrowing shed, Sixty Large White/Landrace first parity sows were weighed, and P2 backfat and maximum eye muscle depth (MMD) measured. Sows were then stratified according to both liveweight and body composition and allocated to one of two treatment groups (n=30 sows). One group (Control) received a standard lactation diet (0.71 g avail. lys/MJ DE) throughout lactation, whilst the other group (Ractopamine) received the same standard lactation diet but supplemented with ractopamine at 10 parts per million (ppm) from days 1-13 of lactation and 20 ppm from day 14 of lactation until mating. Dietary treatments commenced on day 1 of lactation (Day 0=first 24 hours after farrowing). During lactation, the amount of feed offered each day was stepped up gradually, reaching 6 kg/day by day 7 of lactation, and was fed over three meals per day, with daily feed disappearance recorded for each sow. Weaning took place 21 days after farrowing, and between weaning and first Al sows received 3 kg/day of their respective diets. Sows were weighed, and P2 backfat and MMD measured on days 1, 7, 14 and 20 of lactation. Gilts were weighed prior to being fed, and P2 backfat and MMD were measured over the last rib 65 mm down from the vertebrae by an experienced commercial operator using a 3.5 MHz linear probe (Ausonics Impact). Litter size was standardised to 9 piglets within 24 hours of farrowing, with piglets receiving only maternal milk as their feed source and weighed on days 1, 7, 13 and 20 of their mother's lactation. Maternal milk samples were collected on days 3, 13 and 20 of lactation and analysed for fat and protein content.
# After weaning, sows were housed in groups of three or four. Boar exposure commenced on the fourth day after weaning, consisted of 15 minutes of full, physical boar contact and was conducted in a detection mating area (DMA). At their first oestrus after weaning, sows two artificial inseminations (AIs), 24 hours apart.
# All Als took place in the DMA, with fence-line contact with a boar during the procedure. Inseminations were performed as per standard industry practice using disposable spirette catheters, with each insemination consisting of an 80 ml dose of fresh, extended semen (3×10^9 spermatozoa per inseminate; <4 days old). Semen used for this experiment was purchased from a commercial artificial insemination collection centre (SABOR Pty. Ltd, Clare, South Australia). Sows not detected in oestrus by 10 days after weaning were described as anoestrous.
smiles,measurement,setting,value
"CC(CCc1ccc(O)cc1)NCC(O)c1ccc(O)cc1 (racemic) [Ractopamine, ractopamine]",weaning-to-oestrus interval (WOI),[1]; anoestrus sows allocated nominal 15 d,6.4 ± 0.63 days
same,Lactation weight loss (kg) Days 1-14,"[1]; first parity sows, ractopamine 10 ppm d 1-13, 20 ppm from d 14",4.6 ± 1.41 kg
same,"Piglets born at second litter, Total born",[1]; subsequent (second) litter,9.7 ± 0.54
same,proportion of sows exhibiting oestrus within 10 d of weaning,[1]; within 10 d of weaning,0.95±0.08
same,Proportion mated sows pregnant,[2]; after two AIs at first oestrus post-weaning,0.91
same,P2 backfat loss in lactation (mm),[2],lost significantly less
same,P2 backfat loss in lactation (mm),[2]; listed as Ractoparnine,2.44^b mm
same,MMD loss in lactation (mm),[2],similar
same,MMD loss in lactation (mm),[2]; listed as Ractoparnine,2.1 mm
same,Live weight loss in lactation (kg) Days 1-7,[2],similar
same,Live weight loss in lactation (kg) Days 8-14,[2],similar
same,Live weight loss in lactation (kg) Days 15-20,[2],lost significantly less
same,Live weight loss in lactation (kg) Days 1-7,[2]; listed as Ractoparnine,2.43 kg
same,Live weight loss in lactation (kg) Days 8-14,[2]; listed as Ractoparnine,2.98 kg
same,Live weight loss in lactation (kg) Days 15-20,[2]; listed as Ractoparnine,0.66^b kg
same,2nd litter size: Born alive,[2],tendency (P=0.064) for the number of piglets born alive-at the second litter to be higher
same,2nd litter size: Total born,[2],"numerical, but not significant, increase"
same,2nd litter size: Born alive,[2]; listed as Ractoparnine,9.48**
same,2nd litter size: Total born,[2]; listed as Ractoparnine,9.66
same,Weaning-to-oestrus (d),[2]; sows not in oestrus within 10 days assigned nominal 15 days,similar
same,Weaning-to-oestrus,"[2]; sows not in oestrus within 10 days assigned nominal 15 days, listed as Ractoparnine",6.39 days
same,Proportion sows exhibiting oestrus,[2],"numerical, but not significant, reduction in the proportion of Control compared to Ractopamine sows"
same,Proportion sows exhibiting oestrus,[2]; listed as Ractoparnine,0.95
